The record followed here is patent US20210196675A1, “USE OF GINKGO BILOBA TERPENE LACTONE IN PREPARATION OF DRUGS FOR PREVENTION AND/OR TREATMENT OF TREMORS AND HEALTHCARE PRODUCTS” (CHENGDU BAIYU PHARMACEUTICAL CO., LTD., priority 2018, published 2021).

Where a name gives a salt, the structure may show the parent alone.

For assay [1], the system named is mice with essential tremor. Put plainly: Rotating rod test in harmaline induced mouse model of essential tremor. The conditions noted are these: for Residence Time on Rod, Time 0: 15 minutes after modeling with harmaline, immediately before administration; for Residence Time on Rod, Time 0 / Residence Time on Rod, 30 min / Residence Time on Rod, 60 min / Residence Time on Rod, 90 min / Residence Time on Rod, Pre-harmaline: mean ± SD; for Residence Time on Rod, 30 min: 30 min after time 0/administration; for Residence Time on Rod, 30 min / Residence Time on Rod, 60 min / Residence Time on Rod, 90 min: test groups 5 mg/kg·bw intraperitoneal, propranolol 2 mg/kg·bw gavage; for Residence Time on Rod, 60 min: 60 min after time 0/administration; for Residence Time on Rod, 90 min: 90 min after time 0/administration; for Ratio of area under the curve of each group to area under the curve of the model control group: area under the rod exercise ability recovery curve, model control group = 1, normal control group 6.47; for residence time on rod compared with model control group (in words): at each time point 30 min, 60 min, 90 min; for residence time on rod compared with model control group (in words) / recovery of exercise ability in the rotating rod test compared with model control (in words): p<0.05; for Residence Time on Rod, Pre-harmaline: baseline before harmaline and before administration, 10 mice per group, max 180 seconds; for recovery of exercise ability in the rotating rod test compared with model control (in words): from area under the curve, Table 2. The class given is in vivo, ICR male mice. The source says: Effect of Ginkgo biloba terpene lactone on the Mouse Model of Essential Tremor Induced by Harmaline
The following animals are used: 100 […] (ICR) male mice of SPF grade, weighted 18-22 g, purchased from Chengdu Dashuo Experimental Animal Co., Ltd., with the animal production license number of SCXK (Sichuan) 2015-030.
100 mice were randomly assigned to ear label number and randomly divided into 10 groups according to weight stratified random number method, with 10 mice in each group.
The groups are: normal control group, model control group, propranolol hydrochloride tablet control group, Ginkgo biloba leave extract injection solution control group, ginkgolide injection group, ginkgolide A group, ginkgolide B group, bilobalide group, ginkgolide B/bilobalide group (GB:BB=1:1 w/w) and ginkgolide A/B/C group (A:B:C=1:1:1 w/w/w).
The normal control group and the model control group were administrated 0.9% sodium chloride injection by intraperitoneal injection at 0.1 mL/10 g·bw.
The hydrochloride tablet control group was administrated by gavage a solution (prepared with 0.9% sodium chloride injection) at 2 mg/kg·bw.
Ginkgolide injection group, ginkgolide A group, ginkgolide B group, bilobalide group, ginkgolide B/bilobalide group, ginkgolide A/B/C group were administrated by intraperitoneal injection at 5 mg/kg·bw.
Ginkgo biloba leave extract injection solution control group was administered by intraperitoneal injection at 5 mg/kg·bw.
On the day before the rotating rod test, all mice were given rotating rod training, so that they were familiar with the relevant movements and were able to maintain balance by climbing continuously, without falling from the rotating rod at a low rotating speed (10 circles/min).
First, a rotating rod test was performed on all mice. The result was recorded as Pre-harmaline, used as the basic value of their exercise ability.
15 minutes after modeling, the time when it is observed that the mice given harmaline show obvious tremor, reduced activity and ataxia symptoms, was took as time 0. A rotating rod test was performed on all mice at time 0. Then the mice were administered immediately.
After time 0, a rotating rod test was performed on all mice at time 30 min (30 min), time 60 min (60 min), and time 90 min (90 min).
Rotary rod test method: the mice were placed on the Rota Rod Fatigue Tester, and adapted for 20 seconds. After the mice stood steady on the rod, the tester was started and the rod was accelerated at a constant rate according to the setting. Each mouse's residence time on the rod, from the beginning of the test to the time when falling off the rod, was recorded respectively. The Rota Rod Fatigue Tester supports up to 6 channels for simultaneous testing.
The rod is set to rotate at an initial speed of 5 circles/min (5 c/min) which is increased at a constant rate to a maximum speed of 30 circles/min (30c/min) during 120 seconds, and kept at the maximum speed for 60 seconds. Therefore, each test costs 180 seconds in total, and the mice that had not yet fallen off the rod at the end of 180 seconds was recorded as having a residence time of 180 seconds on the rod.
Exercise ability change curves of the mice in each group were drawn, and the area under the curve was calculated.
The experimental data were processed by using a SPSS 19.0 statistical software. The measurement data are expressed as mean±standard deviation (±SD). Data normality test was performed using the Kolmogorov-Smirnov method.

In assay [2] the test system is Patients with Essential Tremor. Put plainly: Observation of dropping pills on patients with essential tremor (tremor score, adverse reactions). The class given is in vivo, human. To be noted: Patient 2, general information before treatment.
Source text: The following 6 items related to tremor are scored: 1) patient complaint; 2) upper limb tremor procedure; 3) head, jaw, tongue and lower limb tremor degree; 4) full water test; 5) dressing, eating, buttoning and chopstick using; and 6) drawing circles and straight lines. The score for each item is classified as: normal (scored 0 piont), mild (scored 1 point), moderate (scored 2 points) and severe (scored 3 points).
Ineffective: the difference in tremor score before and after the treatment is −1 to 1.
(§1) Deterioration: the difference in tremor score before and after the treatment is ≤−2.
For assay [3], the system named is Patients with Vascular Tremor. Put plainly: Observation of dropping pills on patients with vascular tremor (tremor score, adverse reactions). The class given is in vivo, human. The conditions noted are these: Patients 1, 2, 3, general information before treatment.
Source text: Diagnosis criteria: A. Reduced movement, muscle rigidity, forward gait, broken steps and reciprocating; B. Positive signs of the nervous system; C. A history of hypertension and cerebral arteriosclerosis.
Exclusion criteria: Tremor paralysis caused by drugs and other diseases are excluded.
The following 6 items related to tremor are scored: 1) patient complaint; 2) upper limbs tremor procedure; 3) head, jaw, tongue and lower limbs tremor degree; 4) full water test; 5) dressing, eating, buttoning and chopsticks using; 6) drawing circles and straight lines. The score for each item is classified as: normal (scored 0 piont), mild (scored 1 point), moderate (scored 2 points) and severe (scored 3 points).
Ineffective: the difference in tremor score before and after the treatment is −1 to 1
as §1

With `CC(C)(C)[C@]1(O)CC2OC(=O)CC23C(=O)OC2OC(=O)[C@H](O)C231` (stereo partly shown) [Bilobalide, bilobalide], in assay [1], the “Residence Time on Rod, Time 0” value amounted to 40.0 ± 15.6 s; the “Residence Time on Rod, 30 min” value was 48.2 ± 12.8 s; the “Residence Time on Rod, 60 min” value stood at 61.2 ± 15.2 s; the “Residence Time on Rod, 90 min” value came to 90.6 ± 13.9 s. In assay [1], the “Ratio of area under the curve of each group to area under the curve of the model control group” value (shortened to “Ratio of area”) came out at 2.20; the “residence time on rod compared with model control group (in words)” value is “significantly higher than that of the model control group”; the “Residence Time on Rod, Pre-harmaline” value came to 171.6 ± 17.9 s; the “recovery of exercise ability in the rotating rod test compared with model control (in words)” value is recorded as “significantly better than that of model control mice”.
As to `C[C@@H]1C(=O)O[C@H]2C[C@@]34[C@H]5C[C@@H](C(C)(C)C)[C@]36[C@@H](OC(=O)[C@@H]6O)O[C@@]4(C(=O)O5)[C@]21O` [Ginkgolide A, ginkgolide A], in assay [1], the “Residence Time on Rod, Time 0” value amounted to 42.6 ± 10.8 s; the “Residence Time on Rod, 30 min” value came to 50.8 ± 10.9 s; the “Residence Time on Rod, 60 min” value is 60.3 ± 13.1 s; the “Residence Time on Rod, 90 min” value turned out to be 91.4 ± 11.5 s. Moreover, in assay [1], the “Ratio of area” value stood at 2.24; the “residence time on rod compared with model control group (in words)” value is reported as “significantly higher than that of the model control group”; the “Residence Time on Rod, Pre-harmaline” value stood at 170.6 ± 21.2 s; the “recovery of exercise ability in the rotating rod test compared with model control (in words)” value is “significantly better than that of model control mice”.
As to `CC1C(=O)OC2C(O)C34C5CC(C(C)(C)C)C36C(OC(=O)C6O)OC4(C(=O)O5)C12O` (stereo not shown) [Ginkgolide B, ginkgolide B], in assay [1], the “Residence Time on Rod, Time 0” value worked out at 43.9 ± 12.3 s; the “Residence Time on Rod, 30 min” value worked out at 52.6 ± 9.8 s; the “Residence Time on Rod, 60 min” value is 65.8 ± 12.8 s; the “Residence Time on Rod, 90 min” value was 100.2 ± 14.2 s. In assay [1], the “Ratio of area” value was determined as 2.39; the “residence time on rod compared with model control group (in words)” value is recorded as “significantly higher than that of the model control group”; the “Residence Time on Rod, Pre-harmaline” value is 175.7 ± 18.3 s; the “recovery of exercise ability in the rotating rod test compared with model control (in words)” value is reported as “significantly better than that of model control mice”.
Take `CC(C)NCC(O)COc1cccc2ccccc12` (stereo not shown) [Propranolol hydrochloride tablet, Propranolol hydrochloride, reference compound]: in assay [1], the “Residence Time on Rod, Time 0” value worked out at 41.6 ± 12.8 s; the “Residence Time on Rod, 30 min” value was found to be 60.1 ± 12.8 s; the “Residence Time on Rod, 60 min” value is 77.6 ± 10.3 s; the “Residence Time on Rod, 90 min” value was 119.3 ± 13.0 s. Also, in assay [1], the “Ratio of area” value was 2.74; the “residence time on rod compared with model control group (in words)” value is reported as “significantly higher than that of the model control group”; the “Residence Time on Rod, Pre-harmaline” value stood at 176.6 ± 12.9 s; the “recovery of exercise ability in the rotating rod test compared with model control (in words)” value is “significantly better than that of model control mice”.
On to `N[C@@H](Cc1ccc(O)c(O)c1)C(=O)O` [Levodopa], for which the “effect in this patient (patient history)” value in assay [2] and in assay [3] was “no effect” throughout.
